The text below walks through data of US20260285816A1, “Piperazinyl-Modified Quinazolinyl-Aryl Urea Derivative, And Preparation Method And Use Thereof” (Guangxi Normal University, priority 2025, published 2026).

One data set concerns HeLa cells. Kind of data set: CCK-8 anti-proliferative assay, HeLa. In kind it is cell-based, human. In short, it runs like this:
(§1)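 Cells seeded at 5,000/well and grown at 37° C., 5% CO2 to 70% confluency, then treated with compound at final 1, 2, 4, 6, 8, 12, 16, 24 and 30 μM in triplicate.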

The test system of the next data set is MCF-7 cells. The data set is described as follows: CCK-8 anti-proliferative assay, MCF-7. In kind it is cell-based, human. As to conditions: Homo sapiens, MCF7; Table 12; co-incubated 48 h; read-out: Anti-proliferative activity (IC50 ± standard deviation) MCF-7. Put shortly: as §1
The subject of the next data set is T24 cells. The data set is described as follows: CCK-8 anti-proliferative assay, T24. The conditions noted are these: Homo sapiens, T-24; Table 10; co-incubated 48 h; read-out: Anti-proliferative activity (IC50 ± standard deviation) T24. In kind it is cell-based, human. In short, it runs like this:
(§2)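 Cells seeded at 5,000/well were grown at 37° C. under 5% CO2 to 70% confluency, then exposed in triplicate to 1–30 μM compound (1, 2, 4, 6, 8, 12, 16, 24, 30 μM) for designated durations. CCK-8 was added for 1–4 h, OD read at 450 nm, and IC50 derived from inhibition versus control.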

Another data set concerns J82 cells. The data set is described as follows: CCK-8 anti-proliferative assay, J82. In kind it is cell-based, human. The conditions noted are these: Homo sapiens, J82. In short, it runs like this: as §1
A further data set concerns SK-OV-3 cells. The data set is described as follows: CCK-8 anti-proliferative assay, SK-OV-3. As to conditions: Homo sapiens, SK-OV-3, co-incubated 48 h, read-out: Anti-proliferative activity (IC50 ± standard deviation) SK-OV-3. In kind it is cell-based, human. In short, it runs like this: as §1
The next data set relates to 5637 cells. The data set is described as follows: CCK-8 anti-proliferative assay, 5637. The format is cell-based, human. The conditions noted are these: Homo sapiens. In short, it runs like this:
as §1

The next data set relates to PANC-1 cells. Kind of data set: CCK-8 anti-proliferative assay, PANC-1. In kind it is cell-based, human. The conditions noted are these: for IC50: Homo sapiens, PANC-1, co-incubated 48 h, read-out: Anti-proliferative activity (IC50 ± standard deviation) PANC-1. In short, it runs like this: as §2
The next data set has as its system Hep G2 cells. Kind of data set: CCK-8 anti-proliferative assay, Hep G2. In kind it is cell-based, human. As to conditions: Homo sapiens, HepG2; Table 12; co-incubated 48 h; read-out: Anti-proliferative activity (IC50 ± standard deviation) Hep G2. In short, it runs like this:
as §2

Data set [1] deals with embryonic lung fibroblasts (WI-38). The data set is described as follows: CCK-8 anti-proliferative assay, normal cells WI-38. The format is cell-based, human. The conditions noted are these: Homo sapiens, WI-38, Table 13, co-incubated 48 h, read-out: Anti-proliferative activity (IC50 ± standard deviation) WI-38. Put shortly: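 Absorbance at 450 nm after CCK-8 labelling (1–4 h, varying by cell line) gave inhibition relative to untreated control, from which IC50 values were derived. Compounds were applied at final concentrations of 1 to 30 μM in triplicate wells once cultures reached 70% confluency, with co-incubation for designated durations.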

The subject of a further data set is BxPC-3 cells. The data set is described as follows: CCK-8 anti-proliferative assay, BxPC-3. As to conditions: for IC50: Homo sapiens, BXPC-3, co-incubated 48 h, read-out: Anti-proliferative activity (IC50 ± standard deviation) BxPC-3. The format is cell-based, human. In short, it runs like this:
as §2

The test system of data set [2] is immortalized ureteral epithelial cells (SV-HUC-1). Kind of data set: CCK-8 anti-proliferative assay, normal cells SV-HUC-1. In kind it is cell-based, human. As to conditions: Homo sapiens, SV-HUC1, normal cells, co-incubated 48 h, read-out: Anti-proliferative activity (IC50 ± standard deviation) SV-HUC-1. Put shortly: as §1
In the next data set the test system is 143B cells. Kind of data set: CCK-8 anti-proliferative assay, 143B. In kind it is cell-based, human. The conditions noted are these: Homo sapiens, 143B, co-incubated 48 h, read-out: Anti-proliferative activity (IC50 ± standard deviation) 143B. In short, it runs like this:
as §2

Data set [3] concerns UM-UC-3 cells. Kind of data set: CCK-8 anti-proliferative assay, UM-UC-3. In kind it is cell-based, human. As to conditions: Homo sapiens, UMUC3, co-incubated 48 h, read-out: Anti-proliferative activity (IC50 ± standard deviation) UM-UC-3. Put shortly: as §1
Data set [4] concerns UM-UC-3 cells. Kind of data set: Cell cycle analysis (PI staining, flow cytometry), UM-UC-3. The format is cell-based, human. As to the method: Tumor cells (T24, UM-UC-3, 143B, BxPC-3) in logarithmic growth phase were inoculated into 70 mm culture dishes. After 70% confluency was reached, medium was replaced and treated with: compound 8-1j, ferroptosis inducer Erastin, or cell cycle blocker paclitaxel (PTX) for a specified duration. Post-incubation, cells were trypsinized, collected, centrifuged, and washed 2 times with pre-cooled phosphate-buffered saline (PBS). Pre-cooled 75% ethanol was added dropwise during vortexing for fixation at −20° C. overnight. After centrifugation (10 min), supernatant was discarded. Cells were rewashed with PBS and centrifuged. Following kit instructions (Beyotime, C1052, China), 0.5 mL staining buffer, 25 μL PI (propidium iodide) stain (20×), and 10 μL RNase A (50×) were mixed per sample. Cells were resuspended in PI staining solution and incubated at 37° C. in dark for 30 min (gentle shaking every 10 min). Samples were filtered through 200-mesh filters, transferred into a flow tube, and analyzed via BD FACSVerse flow cytometer. All experiments were conducted in 3 repeats. Compounds 8-2h and 8-2j were evaluated identically.

The subject of a further data set is A549 cells. The data set is described as follows: CCK-8 anti-proliferative assay, A549. In kind it is cell-based, human. Put shortly: as §1
The next data set deals with MG-63 cells. Kind of data set: CCK-8 anti-proliferative assay, MG-63. The format is cell-based, human. The conditions noted are these: Homo sapiens, MG-63, co-incubated 48 h, read-out: Anti-proliferative activity (IC50 ± standard deviation) MG-63. Put shortly:
as §2

For data set [5] the following is noted: background; cited from earlier work.
For data set [6] the following is noted: background; cited from earlier work. The source holds these as a separate data set.
In another data set the test system is human osteosarcoma 143B. Kind of data set: 143B tumor-bearing nude mouse model. The conditions noted are these: 40 mg/kg oral gavage, every 2 d, 42 d. In kind it is in vivo, nude mice. Here is the method:
Experimental method: bladder cancer J82 cells in logarithmic growth phase were trypsinized, collected, and then centrifuged, and resuspended in serum-free DMEM medium after discarding an original medium. Cell density was adjusted, and 0.2 mL cell suspension was subcutaneously inoculated into 5-week-old BALB/c-nu mice (sex-balanced, 18-20 g) under a laminar flow clean bench. Post-inoculation, bleeding at injection sites was monitored. When tumors reached 50-80 mm^3, nude mice with good tumor growth status were randomized into 5 groups (n=6/group) for intraperitoneal administration. Tumor volume and body weight were recorded on Day 0. […] Dosing occurred every 2 d for 42 d. After administering the drug, mice were monitored for diarrhea, anorexia, lethargy, and allergic reactions (e.g., pruritus). The body weight of nude mice was measured every 2 days, and the long and short diameters of the tumors in nude mice were measured by using a vernier caliper, then the recording was finished.
Construction of the human osteosarcoma 143B tumor-bearing nude mouse model followed similar procedures, with identical dosing frequency but administration route changed to oral gavage. Specifically: When tumors reached 60-90 mm^3, mice were randomized into 4 groups (n=6). […]

Structures can show the parent of a compound that is named as a salt. Where two headings read alike, the source gives them in different places.

`COc1cc2ncnc(NCc3cccc(NC(=O)Nc4ccc(C(C)(C)C)cc4)c3)c2cc1OCCCCCCN1CCC(CN2CCN(c3ccccn3)CC2)CC1` [Compound 8-2j, N-(3-(((7-methoxy-6-((6-(4-((4-(pyridin-2-yl)piperazin-1-yl)methyl)piperidin-1-yl)hexyl)oxy)quinazolin-4-yl)amino)methyl)phenyl)-N′-(4-tert-butylphenyl)urea]: the “Sensitivity of HeLa, in words” value with HeLa cells is “sensitive”. In addition, the IC50 in the data set with HeLa cells (Homo sapiens, HeLa, Table 12, co-incubated 48 h, read-out: Anti-proliferative activity (IC50 ± standard deviation) HeLa) was 3.81 ± 0.25 µM; in the data set with MCF-7 cells, 5.73 ± 0.59 µM; with T24 cells, 3.32 ± 0.15 µM; with J82 cells (Table 10, co-incubated 48 h, read-out: Anti-proliferative activity (IC50 ± standard deviation) J82), 3.42 ± 0.25 µM; in the data set on J82 cells (read-out: IC50 values against J82 cells), 3.42 ± 0.25 µM; with SK-OV-3 cells (Table 12), 4.61 ± 0.38 µM. The IC50 with 5637 cells (Table 10, co-incubated 48 h, read-out: Anti-proliferative activity (IC50 ± standard deviation) 5637) was determined as 2970 ± 230 nM; in the data set on 5637 cells (read-out: IC50 values against 5637 cells) it was 2970 ± 230 nM; in the data set with PANC-1 cells (Table 11), 5.46 ± 0.31 µM; with Hep G2 cells, 3.81 ± 0.24 µM; in data set [1], 8.79 ± 0.42 µM; with BxPC-3 cells (Table 11), 6.15 ± 0.47 µM. Further, the IC50 in [2] (Table 13) was found to be 8.91 ± 0.72 µM; in the data set on 143B cells (Table 11), 5.59 ± 0.49 µM; in the data set on UM-UC-3 cells [3] (Table 10), 4.66 ± 0.29 µM; in the data set on A549 cells (Homo sapiens, A549, Table 13, co-incubated 48 h, read-out: Anti-proliferative activity (IC50 ± standard deviation) A549), 3.09 ± 0.24 µM; in the data set with MG-63 cells (Table 11), 4.64 ± 0.32 µM. The “Sensitivity of PANC-1, in words” value in the data set on PANC-1 cells is on record as “heightened sensitivity”. In addition, the “Sensitivity of BxPC-3 / anti-proliferative activity against BxPC-3, in words” value with BxPC-3 cells was “heightened sensitivity”. The “Effect of co-administration with PTX on cell cycle” value in the data set on UM-UC-3 cells [4] (UM-UC-3, with PTX) is reported as “Synergistic effects”. Besides, the “Cell cycle arrest phase” value with UM-UC-3 cells [4] (UM-UC-3 cells (FIG. 45)) is “arrest cell cycle at G2/M phase”. Further, the “Activity against A549 versus the 8-1 to 8-23 series, in words” value in the data set with A549 cells is recorded as “significantly enhanced activity against A549”.
As for `CNC(=O)c1cc(Oc2ccc(NC(=O)Nc3ccc(Cl)c(C(F)(F)F)c3)cc2)ccn1` [Sora, sorafenib, reference compound], the half-inhibitory concentration (IC50) is 13.8 ± 0.78 µM in the data set with SK-OV-3 cells (Table 9); 8.13 ± 0.56 µM in the data set with PANC-1 cells (Table 7); 13.4 ± 1.27 µM in the data set with BxPC-3 cells (Table 7); 10.8 ± 0.54 µM in [2] (Table 9); 22.7 ± 1.59 µM in the data set on 143B cells (Table 7); 14.3 ± 1.51 µM with UM-UC-3 cells [3] (Table 6). For the same molecule, the IC50 in the data set on MG-63 cells (Table 7) was determined as 27.2 ± 1.89 µM. Moreover, the Elimination/metabolism entry in data set [5] was “rapid elimination/metabolism”. In addition, in [5], the Oral bioavailability entry is given as “low oral bioavailability”. For the same molecule, the “Sensitivity of BxPC-3 / anti-proliferative activity against BxPC-3, in words” value in the data set with BxPC-3 cells is recorded as “weak anti-proliferative activity”. Moreover, the Water solubility entry in data set [6] was “poor aqueous solubility”.
Turning to `N#CC1(c2ccc(NC(=O)c3cccnc3NCc3ccncc3)cc2)CCCC1` [Apat, apatinib mesylate, reference compound], the Tumor inhibition entry in the data set on human osteosarcoma 143B is “weak tumor inhibition activity”. Further, the concentration for half-maximal inhibition (IC50) in the data set with 143B cells (Table 7) is 28.4 ± 1.29 µM; in the data set with MG-63 cells (Table 7), more than 30 µM.
